# Reference: patent US5521315A, “Olefin substituted long chain compounds” (priority 1993, dated 1996)
# “And” between values parts separate entries of the source, which are not always exact repeats. Identical values can stand only once. “Also recorded” adds a separate entry of the source. Like-named read-outs stand apart in the source and are kept apart here.
# Key:
# [1] = tested on: CMV promoter activity in transformed (adenovirus) cells; assay: CMV promoter assay (gene transcription and translation; cytotoxicity in transformed cells); format: cell-based
# Source text: (§1) FIG. 18 illustrates data regarding proliferative activity of various inventive compounds for inducting CMV promoter activity. The CMV promoter assay measures gene transcription and translation activity wherein any active compounds will have cytotoxic activity to inhibit cellular protein synthesis machinery in transformed (adenovirus) cells.
# as §1, with “This example” for “FIG. 18”
# [2] = tested on: human lymphocytes; assay: IL-2 induced blastogenesis assay; format: cell-based; conditions: human IL-2, six days; FIG. 12
# Description: (§2) Briefly, human lymphocytes are obtained from blood from normal volunteers and plated into wells at 2×10^5 cells/well. Human IL-2 ([…] or 5 μl of a 100 U/ml solution) and drug at various concentrations are added to each well. The cells are incubated for six days and then proliferation is determined by a standard tritiated thymidine incorporation procedure. […] However, both CT1406 and CT1442 were active, as is shown by IC50 values in FIG. 12.
# as §2, with “This example illustrates the effects of four inventive compounds to inhibit proliferation of human lymphocytes in an IL-2 induced blastogenesis in vitro assay. […] Briefly,” for “Briefly,”, “cells am” for “cells are”
# [3] = tested on: mast cell degranulation; assay: Serotonin release assay (inhibition of mast cell degranulation); format: cell-based; set-up: INCORP / TOTAL: unit not given here; conditions: 50 μM; for RELEASE-SPONT: average corrected for spontaneous release; for AVERAGE % RELEASE: average of duplicates; for inhibition at 50 µM: Mast cell
# Source text: A serotonin release assay is utilized to study the utility of the inventive compounds for treatment of asthma and allergy. […] This assay measures mast cell degranulation, which is an early phase reaction to allergen challenge. Mast cells grown in tissue culture are first loaded with ^3 H serotonin, which is incorporated into the granules in the cells. The mast cells are sensitized with antigen specific monoclonal IgE, and then triggered to degranulate with the specific antigen (dinitorphenolbound to BSA (DNP)). When the cells degranulate, ^3 H Serotonin is released into the medium, and can be measured directly. The ability of the inventive compounds to inhibit the degranulation response is determined by the decrease in ^3 H Serotonin released in the presence of drug and is represented as % INHIBITION.
# Specifically, the serotonin release assay seeds 2×10^5 cells in 0.5 ml medium in duplicate for spontaneous release, IgE+DNP, IgE+DNP+EtOH (vehicle control), and inventive compounds. […] The cells are incubated for 18 hours at 37° C. in 5% CO2, washed twice with 0.5 ml Isotonic Buffer (25 mM disodium PIPES pH 7.1,100 mM NaCl, 5 mM KCl, 5 mM glucose, 0.4 mM MgCl2, 1mM CaCl2, 0.1% BSA), and sterile filtered. 250 μl Isotonic Buffer is added per well and the plates are equilibrated in an incubator for about 10 min. Drug is added and cells are activated with 40 ng/ml DNP-BSA (1 mg/ml Diluted 1:200 in Isotonic Buffer) for 45 minutes using 2 μl/250 μl. Spontaneous release is determined in incubated cells with 250 μl Isotonic Buffer for 45 minutes and the reaction is stopped by removing supernatant and centrifuging at ~4000 rpm in microfuge for 15 seconds to remove any detached cells. Released radiolableled serotonin is counted. To determine amount of ^3 H-serotonin incorporated into the cells, (a) remove Isotonic Buffer and lyse cells by adding 250 μl 1% Triton-X100 in PBS, (b) add to 5 ml scintillation fluid, (c) wash 2× with Triton/PBS, and (d) add washes to scintillation tube. Percent serotonin release is calculated by dividing the amount of released serotonin by the sum of incorporated plus released serotonin and correcting for spontaneous released serotonin. Compound inhibition is calculated by dividing the percent serotonin release in the presence of a compound by the percent serotonin release in the absence of the compound.
# This assay is described above and provides an in vitro model for an allergy and asthma therapeutic product.
# [4] = tested on: PBMC in mixed lymphocyte assay culture; assay: Percent viable cells in mixed lymphocyte assay culture after six days; format: cell-based, human; conditions: for cytotoxicity in mixed lymphocyte assay culture: 100 μM, six days of culture
# [5] = tested on: PBMC (peripheral blood mononuclear cells); assay: Two-way mixed lymphocyte reaction (MLR), proliferation of PBMC to allogeneic stimulation; format: cell-based, human; conditions: for mixed lymphocyte reaction activity: FIGS. 1 and 2
# Source text: Various in vitro assays can be used to measure effects of the inventive compounds to module immune activity and have antitumor activity using a variety of cellular types. For example, a mixed lymphocyte reaction (MLR) provides a valuable screening tool to determine biological activity of each inventive compound. In the MLR, PBMCs (peripheral blood mononuclear cells) are obtained by drawing whole blood from healthy volunteers in a heparinized container and diluted with an equal volume of hanks balanced salt solution (HBSS). This mixture is layered on a […] density gradient, such as a Ficoll-Hypaque® gradient (specific gravity 1.08), and centrifuged at 1000×g for 25 minutes at room temperature or cooler. PBMC are obtained from a band at a plasma-Ficoll interface, separated and washed at least twice in a saline solution, such as HBSS. Contaminating red cells are lysed, such as by ACK lysis for 10 min at 37° C., and the PBMCs are washed twice in HBSS. The pellet of purified PBMCs is resuspended in complete medium, such as RPMI 1640 plus 20% human inactivated serum. Proliferative response of PBMC to allogeneic stimulation is determined in a two-way MLR performed in a 96-well microliter plate. Briefly, approximately 10^5 test purified PBMC cells in […] complete medium are co-cultured with approximately 10^5 autologous (control culture) or allogeneic (stimulated culture) PBMC cells, wherein the allogeneic cells are from HLA disparate individuals. Varying doses of compounds (drug) are added at the time of addition of cells to the microtiter plate. The cultures are incubated for 6 days at 37° C. in a 5% CO2 atmosphere. At the conclusion of the incubation tritiated thymidine is added (for example, […] of 40 to 60 Ci/mmole) and proliferation determined by liquid scintillation counting.
# This example illustrates a mixed lymphocyte reaction assay of inventive compounds by showing the IC50 value of each compound in this assay and a dose response of several compounds to illustrate an IC50 determination.
# [6] = tested on: murine thymocyte; assay: Murine thymocyte stimulated by ConA and IL-2 (T cell immune suppression); format: cell-based; conditions: FIGS. 8 and 9
# Description: A thymocyte costimulator assay is conducted to evaluate the inventive compounds to inhibit activation and proliferation of thymocytes caused by stimulation with Con A and interleukin-1 (IL-1), or […]. Thymuses are obtained from mice (e.g., female Balb/C mice) and the thymuses are removed and dissociated into culture media (e.g., RPMI 1640 without serum supplementation). The dissociated thymus tissue and cell suspension is transferred to centrifuge tubes and allowed to settle, washed with HBSS and resuspended in serum-supplemented culture media (e.g., RPMI 1640 with 10% fetal calf serum). Any contaminating red cells are lysed, and viable cells are resuspended and counted. Thymocytes are plated (e.g., 96-well plates at a density of 2×10^5 cells/well) and a stimulating agent, such as Con A, IL-1 (e.g., IL-1α) or IL-2 is added to the well. The cells are incubated for 4 days at 37° C. On the fourth day, the cells are pulsed with tritiated thymidine and cell proliferation determined. Inventive compounds are added at the time of stimulating agent addition.
# A third assay measures an ability of an inventive compound to inhibit IL-2-induced proliferation of murine thymocytes. Thymus glands are obtained from 4-6 week old mice and plated as a single cell suspension into flat bottomed wells in RPMI 1640 medium supplemented with 10% fetal calf serum. The inventive compounds are added to appropriate wells and the cells are incubated for 1-2 hrs. Concanavilin A (ConA, 0.25 mg/ml) and […] (20 ng/ml) are added and the plates are incubated for 4 days. Cell proliferation is determined as above.
# FIG. 8 compares T cell immune suppression data of thirteen inventive compounds by comparing their IC50 values in a murine thymocyte stimulated by ConA and IL-2 in vitro model.
# [7] = tested on: human lymphocytes; assay: CD3 blastogenesis assay; format: cell-based; conditions: IL-2 or CD3 blastogenesis; FIG. 13
# Description: (§3) The CD3 blastogenesis assay is virtually identical to the IL-2 blastogenesis assay described herein, except a human anti-CD3 monoclonal antibody (4 μg/ml, Boehinger Manheimm) is used instead of human IL-2 and the cells are incubated for only three days.
# as §3, with “This example illustrates various IC50 values of five inventive compounds as determined by an IL-2 blastogenesis assay described in example 44 above or a CD3 blastogenesis assay. The” for “The”
Molecule,IC50 [1],activity in IL-2 blastogenesis assay [2],RELEASE-SPONT ([3]; Table 4),AVERAGE % RELEASE ([3]; Table 4),inhibition at 50 µM ([3]; Table 4),cytotoxicity in mixed lymphocyte assay culture [4],therapeutic window ([4]; cytotoxicity at 100 μM vs MLR IC50),mixed lymphocyte reaction activity [5],"IC50 ([5]; Homo sapiens, PBMC, FIGS. 3 and 4)","IC50 ([1]; Table 2, read-out: IC50)",T cell immune suppressing activity [6],activity in serotonin release assay [3],% INHIBITION ([3]; Table 4),"% RELEASE ([3]; Table 4, duplicate wells)","INCORP ([3]; Table 4, duplicate wells)","RELEASE ([3]; Table 4, duplicate wells)","RELEASE X2 ([3]; Table 4, duplicate wells)","TOTAL ([3]; Table 4, duplicate wells)",% INHIBITION ([3]; Table 5),immune suppressing activity in blastogenesis assays [7]
"C=CCCCCCCCCCn1c(=O)c2[nH]cnc2n(C)c1=O [CT1406, 1-(10-undecenyl)-3-methylxanthine]",60 µM,active,3.26%,19.81%,59.4%,the most cytotoxic at 100 μM,significant therapeutic window,the most potent activity,20 µM,,,,,,,,,,,
"C=CCCCCn1c(=O)c2c(ncn2COC(=O)C(C)(C)C)n(C)c1=O [CT1441, 1-(5-hexenyl)-3-methyl-7-methylpivaloylxanthine]",,,,15.92%,,,,,,300 µM,potent immune suppressing activity,appear to be quite potent,107.89%,15.85% and 16.00%,22567 and 24238,2125 and 2308,4250 and 4616,26817 and 28854,107.89%,
"CC/C=C\CCCCCn1c(=O)c2[nH]cnc2n(C)c1=O [CT1442, 1-(6-cis-nonenyl)-3-methylxanthine]",,active,2.94%,19.49%,63.4%,little or no cytotoxicity at concentrations well above its effective concentrations,,the most potent activity,,,potent immune suppressing activity,increases the activity,,,,,,,,
"CCCCC/C=C\C/C=C\CCCCCCCCn1c(=O)c2c(ncn2C)n(C)c1=O [CT1524, 1-(cis,cis-9,12-octadecadienyl)-3,7-dimethylxanthine]",50 µM,,13.90%,30.46%,-73.3%,,,showed activity within dose ranges achievable in vivo,,,potent immune suppressing activity,may be showing some toxicity at the concentration of 50 μM,,,,,,,,significant immune suppressing activity
"C=CCCCCCCCCCn1c(=O)c2c(ncn2C)n(C)c1=O [CT2501, 1-(10-undecenyl)-3,7-dimethylxanthine]",200 µM,,2.50%,19.06%,68.8%,little or no cytotoxicity at concentrations well above its effective concentrations,,showed activity within dose ranges achievable in vivo,,,,the two most potent compounds in this group,,,,,,,,significant immune suppressing activity
"CC/C=C/CCCCCn1c(=O)c2c(ncn2C)n(C)c1=O [CT2512, 1-(6-trans-nonenyl)-3,7-dimethylxanthine]",50 µM,,1.65%,18.20%,79.5%,,,,,,,appears to increase the activity; also recorded: increases the activity,,,,,,,,significant immune suppressing activity
Cyclosporin A [reference compound],,does not show significant activity,,,,,,,,,,,,,,,,,,generally not very active
